Measured values as given in patent US20230416258A1, “BENZ[…], AND PREPARATION METHOD THEREFOR AND USE THEREOF” (CHINA PHARMACEUTICAL UNIVERSITY, priority 2020, published 2023).

System: KM mice
Experiment: Test for drug-induced disappearance of righting reflex in mice
Type: in vivo
Details: single rapid bolus via tail vein
How it was run: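 Latency to, and duration of, righting reflex loss were recorded after one fast tail-vein bolus. Animals: randomized female KM mice weighing 18–25 g.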

SMILES | Duration (60 mg/kg) | Latency (60 mg/kg) | Duration (30 mg/kg) | Latency (30 mg/kg) | Duration (15 mg/kg) | Latency (15 mg/kg)
COC(=O)CC[C@@H]1N=C(c2ccccc2Cl)c2cc(Br)ccc2-n2c(SC3CCN(C)CC3)nnc21 [Compound 94, methyl (S)-3-(8-bromo-6-(2-chlorophenyl)-1-((1-methylpiperidin-4-yl)thio)-4H-benzo[f][1,2,4]triazolo[4,3-a][1,4]diazepin-4-yl)propionate] | 13.85 min | 0.61 min | – | – | – | –
COC(=O)CC[C@@H]1N=C(c2ccccc2Cl)c2cc([N+](=O)[O-])ccc2-n2c(SC3CCN(C)CC3)nnc21 [Compound 95, methyl (S)-3-(8-nitro-6-(2-chlorophenyl)-1-((1-methylpiperidin-4-yl)thio)-4H-benzo[f][1,2,4]triazolo[4,3-a][1,4]diazepin-4-yl)propionate] | – | – | 12.41 min | 0.82 min | – | –
COC(=O)CC[C@@H]1N=C(c2ccccc2Cl)c2cc(Cl)ccc2-n2c(SCCCN3CCN(CCO)CC3)nnc21 [Compound 96, methyl (S)-3-(8-chloro-6-(2-chlorophenyl)-1-((3-(4-(2-hydroxyethyl)piperazin-1-yl)propyl)thio)-4H-benzo[f][1,2,4]triazolo[4,3-a][1,4]diazepin-4-yl)propionate] | – | – | 7.98 min | 0.49 min | – | –
COC(=O)CC[C@@H]1N=C(c2ccccc2Cl)c2cc([N+](=O)[O-])ccc2-n2c(SCCCN3CCN(CCO)CC3)nnc21 [Compound 98, methyl (S)-3-(8-nitro-6-(2-chlorophenyl)-1-((3-(4-(2-hydroxyethyl)piperazin-1-yl)propyl)thio)-4H-benzo[f][1,2,4]triazolo[4,3-a][1,4]diazepin-4-yl)propionate] | – | – | 14.71 min | 1.31 min | – | –
COC(=O)CC[C@@H]1N=C(c2ccccc2Cl)c2cc(Cl)ccc2-n2c(SCN3CCOCC3)nnc21 [Compound 99, methyl (S)-3-(8-chloro-6-(2-chlorophenyl)-1-((morpholinomethyl)thio)-4H-benzo[f][1,2,4]triazolo[4,3-a][1,4]diazepin-4-yl)propionate] | 19.37 min | 2.63 min | – | – | – | –
COC(=O)CC[C@@H]1N=C(c2ccccc2Cl)c2cc(Br)ccc2-n2c(SCN3CCOCC3)nnc21 [Compound 100, methyl (S)-3-(8-bromo-6-(2-chlorophenyl)-1-((morpholinomethyl)thio)-4H-benzo[f][1,2,4]triazolo[4,3-a][1,4]diazepin-4-yl)propionate] | – | – | 9.75 min | 0.64 min | – | –
COC(=O)CC[C@@H]1N=C(c2ccccc2Cl)c2cc([N+](=O)[O-])ccc2-n2c(SCN3CCOCC3)nnc21 [Compound 101, methyl (S)-3-(8-nitro-6-(2-chlorophenyl)-1-((morpholinomethyl)thio)-4H-benzo[f][1,2,4]triazolo[4,3-a][1,4]diazepin-4-yl)propionate] | – | – | 12.05 min | 0.85 min | – | –
COC(=O)CC[C@@H]1N=C(c2ccccc2)c2cc(Br)ccc2-n2c(SC)nnc21 [Compound 103, methyl (S)-3-(8-bromo-1-(methylthio)-6-phenyl-4H-benzo[f][1,2,4]triazolo[4,3-a][1,4]diazepin-4-yl)propionate] | – | – | 14.42 min | 0.74 min | – | –
COC(=O)CC[C@@H]1N=C(c2ccccc2)c2cc([N+](=O)[O-])ccc2-n2c(SC)nnc21 [Compound 104, methyl (S)-3-(8-nitro-1-(methylthio)-6-phenyl-4H-benzo[f][1,2,4]triazolo[4,3-a][1,4]diazepin-4-yl)propionate] | – | – | 9.78 min | 0.77 min | – | –
COC(=O)CC[C@@H]1N=C(c2ccccc2)c2cc(Cl)ccc2-n2c(SCCN3CCOCC3)nnc21 [Compound 105, methyl (S)-3-(8-chloro-1-((2-morpholinoethyl)thio)-6-phenyl-4H-benzo[f][1,2,4]triazolo[4,3-a][1,4]diazepin-4-yl)propionate] | 13.17 min | 0.49 min | 13.94 min | 0.63 min | – | –
COC(=O)CC[C@@H]1N=C(c2ccccc2)c2cc(Br)ccc2-n2c(SCCN3CCOCC3)nnc21 [Compound 106, methyl (S)-3-(8-bromo-1-((2-morpholinoethyl)thio)-6-phenyl-4H-benzo[f][1,2,4]triazolo[4,3-a][1,4]diazepin-4-yl)propionate] | 3.26 min | 0.09 min | 12.37 min | 0.33 min | – | –
COC(=O)CC[C@@H]1N=C(c2ccccc2)c2cc([N+](=O)[O-])ccc2-n2c(SCCN3CCOCC3)nnc21 [Compound 107, methyl (S)-3-(8-nitro-1-((2-morpholinoethyl)thio)-6-phenyl-4H-benzo[f][1,2,4]triazolo[4,3-a][1,4]diazepin-4-yl)propionate] | – | – | 13.64 min | 0.45 min | – | –
COC(=O)CC[C@@H]1N=C(c2ccccc2)c2cc(Cl)ccc2-n2c(SCCCN(C)C)nnc21 [Compound 108, methyl (S)-3-(8-chloro-1-((3-(dimethylamino)propyl)thio)-6-phenyl-4H-benzo[f][1,2,4]triazolo[4,3-a][1,4]diazepin-4-yl)propionate] | 11.73 min | 0.59 min | – | – | – | –
COC(=O)CC[C@@H]1N=C(c2ccccc2)c2cc(Br)ccc2-n2c(SCCCN(C)C)nnc21 [Compound 109, methyl (S)-3-(8-bromo-1-((3-(dimethylamino)propyl)thio)-6-phenyl-4H-benzo[f][1,2,4]triazolo[4,3-a][1,4]diazepin-4-yl)propionate] | 13.27 min | 0.97 min | – | – | – | –
COC(=O)CC[C@@H]1N=C(c2ccccc2)c2cc([N+](=O)[O-])ccc2-n2c(SCCCN(C)C)nnc21 [Compound 110, methyl (S)-3-(8-nitro-1-((3-(dimethylamino)propyl)thio)-6-phenyl-4H-benzo[f][1,2,4]triazolo[4,3-a][1,4]diazepin-4-yl)propionate] | 15.27 min | 0.21 min | 10.16 min | 0.22 min | – | –
COC(=O)CC[C@@H]1N=C(c2ccccc2Cl)c2cc(Cl)ccc2-n2c(SCOP(=O)(O)O)nnc21 [Compound 111, methyl (S)-3-(8-chloro-6-(2-chlorophenyl)-1-(((phosphonooxy)methyl)thio)-4H-benzo[f][1,2,4]triazolo[4,3-a][1,4]diazepin-4-yl)propionate] | – | – | 18.36 min | 0.67 min | – | –
COC(=O)CC[C@@H]1N=C(c2ccccc2Cl)c2cc(Br)ccc2-n2c(SCOP(=O)(O)O)nnc21 [Compound 112, methyl (S)-3-(8-bromo-6-(2-chlorophenyl)-1-(((phosphonooxy)methyl)thio)-4H-benzo[f][1,2,4]triazolo[4,3-a][1,4]diazepin-4-yl)propionate] | 12.62 min | 0.46 min | 19.21 min | 0.78 min | – | –
COC(=O)CC[C@@H]1N=C(c2ccccc2Cl)c2cc([N+](=O)[O-])ccc2-n2c(SCOP(=O)(O)O)nnc21 [Compound 113, methyl (S)-3-(8-nitro-6-(2-chlorophenyl)-1-(((phosphonooxy)methyl)thio)-4H-benzo[f][1,2,4]triazolo[4,3-a][1,4]diazepin-4-yl)propionate] | 9.49 min | 0.58 min | – | – | – | –
COC(=O)CC[C@@H]1N=C(c2ccccn2)c2cc(Br)ccc2-n2c(SC)nnc21 [Compound 114, methyl (S)-3-(8-bromo-6-(pyridin-2-yl)-1-methylthio-4H-benzo[f][1,2,4]triazolo[4,3-a][1,4]diazepin-4-yl)propionate] | – | – | 20.32 min | 0.41 min | – | –
CCSc1nnc2n1-c1ccc(Br)cc1C(c1ccccn1)=N[C@H]2CCC(=O)OC [Compound 115, methyl (S)-3-(8-bromo-6-(pyridin-2-yl)-1-ethylthio-4H-benzo[f][1,2,4]triazolo[4,3-a][1,4]diazepin-4-yl)propionate] | – | – | 5.02 min | 0.13 min | 1.26 min | 0.18 min
COC(=O)CC[C@@H]1N=C(c2ccccn2)c2cc(Br)ccc2-n2c(SCC3CC3)nnc21 [Compound 116, methyl (S)-3-(8-bromo-6-(pyridin-2-yl)-1-((cyclopropylmethyl)thio)-4H-benzo[f][1,2,4]triazolo[4,3-a][1,4]diazepin-4-yl)propionate] | – | – | 10.89 min | 0.11 min | – | –
COC(=O)CC[C@@H]1N=C(c2ccccn2)c2cc(Br)ccc2-n2c(SCCN3CCOCC3)nnc21 [Compound 117, methyl (S)-3-(8-bromo-6-(pyridin-2-yl)-1-((2-morpholinoethyl)thio)-4H-benzo[f][1,2,4]triazolo[4,3-a][1,4]diazepin-4-yl)propionate] | – | – | 2.03 min | 0.14 min | – | –
COC(=O)CC[C@@H]1N=C(c2ccccn2)c2cc(Br)ccc2-n2c(SCCCN(C)C)nnc21 [Compound 118, methyl (S)-3-(8-bromo-6-(pyridin-2-yl)-1-(3-((dimethylamino)propyl)thio)-4H-benzo[f][1,2,4]triazolo[4,3-a][1,4]diazepin-4-yl)propionate] | – | – | 15.44 min | 0.32 min | – | –
COC(=O)CC[C@@H]1N=C(c2ccccc2F)c2cc(Br)ccc2-n2c(SCCN3CCCC3)nnc21 [Compound 120, methyl (S)-3-(8-bromo-6-(2-fluorophenyl)-1-(2-((pyrrolidin-1-yl)ethyl)thio)-4H-benzo[f][1,2,4]triazolo[4,3-a][1,4]diazepin-4-yl)propionate] | – | – | 19.47 min | 0.29 min | – | –
COC(=O)CC[C@@H]1N=C(c2ccccc2Cl)c2cc(Br)ccc2-n2c(SCCN3CCCC3)nnc21 [Compound 121, methyl (S)-3-(8-bromo-6-(2-chlorophenyl)-1-((2-(pyrrolidin-1-yl)ethyl)thio)-4H-benzo[f][1,2,4]triazolo[4,3-a][1,4]diazepin-4-yl)propionate] | 16.67 min | 0.18 min | – | – | – | –
